Measurements: patent US8192962B2, “Processes for detecting toxic substances” (Daikin Industries, Ltd., priority 2001, dated 2012)

Test system: Stress protein genes
Assay: DNA chip mRNA expression in yeast, stress protein genes (Table 6)
Format: cell-based, Saccharomyces cerevisiae S288C
In short: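 Value is the scanned fluorescence intensity ratio of exposed versus chemical-free cells. Log-phase S288C yeast in YPD at 25° C. received one toxic substance for two hours, dosed to slow growth without killing; Cy3/Cy5-labeled cDNA from oligo-dT-purified mRNA was hybridized to a whole-genome chip at 65° C.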

Compound: CN(C)C(=S)SSC(=S)N(C)C [(10), Tetramethylthiuram disulfide]
- The level of expressed mRNA in the presence of chemical substance/The level of expressed mRNA in the absence of chemical substance (yeast gene YAL005C): 1.8
- The level of expressed mRNA in the presence of chemical substance/The level of expressed mRNA in the absence of chemical substance (yeast gene YAL015C): 2.7
- The level of expressed mRNA in the presence of chemical substance/The level of expressed mRNA in the absence of chemical substance (yeast gene YBL075C): 6.7
- The level of expressed mRNA in the presence of chemical substance/The level of expressed mRNA in the absence of chemical substance (yeast gene YBL093C): 1.1
- The level of expressed mRNA in the presence of chemical substance/The level of expressed mRNA in the absence of chemical substance (yeast gene YBR044C): 1.2
- The level of expressed mRNA in the presence of chemical substance/The level of expressed mRNA in the absence of chemical substance (yeast gene YBR054W): 1.2
- The level of expressed mRNA in the presence of chemical substance/The level of expressed mRNA in the absence of chemical substance (yeast gene YBR067C): 1.0
- The level of expressed mRNA in the presence of chemical substance/The level of expressed mRNA in the absence of chemical substance (yeast gene YBR072W): 43.4
- The level of expressed mRNA in the presence of chemical substance/The level of expressed mRNA in the absence of chemical substance (yeast gene YBR169C): 4.3
- The level of expressed mRNA in the presence of chemical substance/The level of expressed mRNA in the absence of chemical substance (yeast gene YCL035C): 2.3
- The level of expressed mRNA in the presence of chemical substance/The level of expressed mRNA in the absence of chemical substance (yeast gene YCR021C): 1.0
- The level of expressed mRNA in the presence of chemical substance/The level of expressed mRNA in the absence of chemical substance (yeast gene YCR060W): 1.1
- The level of expressed mRNA in the presence of chemical substance/The level of expressed mRNA in the absence of chemical substance (yeast gene YCR083W): 1.8
- The level of expressed mRNA in the presence of chemical substance/The level of expressed mRNA in the absence of chemical substance (yeast gene YDL022W): 1.8
- The level of expressed mRNA in the presence of chemical substance/The level of expressed mRNA in the absence of chemical substance (yeast gene YDL025C): 4.5
- The level of expressed mRNA in the presence of chemical substance/The level of expressed mRNA in the absence of chemical substance (yeast gene YDR033W): 1.0
- The level of expressed mRNA in the presence of chemical substance/The level of expressed mRNA in the absence of chemical substance (yeast gene YDR077W): 0.7
- The level of expressed mRNA in the presence of chemical substance/The level of expressed mRNA in the absence of chemical substance (yeast gene YDR098C): 1.5
- The level of expressed mRNA in the presence of chemical substance/The level of expressed mRNA in the absence of chemical substance (yeast gene YDR155C): 1.3
- The level of expressed mRNA in the presence of chemical substance/The level of expressed mRNA in the absence of chemical substance (yeast gene YDR258C): 13.3
- The level of expressed mRNA in the presence of chemical substance/The level of expressed mRNA in the absence of chemical substance (yeast gene YDR293C): 1.2
- The level of expressed mRNA in the presence of chemical substance/The level of expressed mRNA in the absence of chemical substance (yeast gene YDR436W): 1.1
- The level of expressed mRNA in the presence of chemical substance/The level of expressed mRNA in the absence of chemical substance (yeast gene YDR513W): 3.1
- The level of expressed mRNA in the presence of chemical substance/The level of expressed mRNA in the absence of chemical substance (yeast gene YDR519W): 1.2
- The level of expressed mRNA in the presence of chemical substance/The level of expressed mRNA in the absence of chemical substance (yeast gene YEL030W): 2.5
- The level of expressed mRNA in the presence of chemical substance/The level of expressed mRNA in the absence of chemical substance (yeast gene YEL039C): 1.2
- The level of expressed mRNA in the presence of chemical substance/The level of expressed mRNA in the absence of chemical substance (yeast gene YER042W): 2.1
- The level of expressed mRNA in the presence of chemical substance/The level of expressed mRNA in the absence of chemical substance (yeast gene YER057C): 1.4
- The level of expressed mRNA in the presence of chemical substance/The level of expressed mRNA in the absence of chemical substance (yeast gene YER103W): 9.0
- The level of expressed mRNA in the presence of chemical substance/The level of expressed mRNA in the absence of chemical substance (yeast gene YER125W): 1.2
- The level of expressed mRNA in the presence of chemical substance/The level of expressed mRNA in the absence of chemical substance (yeast gene YFL014W): 5.8
- The level of expressed mRNA in the presence of chemical substance/The level of expressed mRNA in the absence of chemical substance (yeast gene YFL016C): 2.9
- The level of expressed mRNA in the presence of chemical substance/The level of expressed mRNA in the absence of chemical substance (yeast gene YFL020C): 1.4
- The level of expressed mRNA in the presence of chemical substance/The level of expressed mRNA in the absence of chemical substance (yeast gene YFR052W): 3.0
- The level of expressed mRNA in the presence of chemical substance/The level of expressed mRNA in the absence of chemical substance (yeast gene YGL073W): 2.4
- The level of expressed mRNA in the presence of chemical substance/The level of expressed mRNA in the absence of chemical substance (yeast gene YGL115W): 1.2
- The level of expressed mRNA in the presence of chemical substance/The level of expressed mRNA in the absence of chemical substance (yeast gene YGL181W): 2.3
- The level of expressed mRNA in the presence of chemical substance/The level of expressed mRNA in the absence of chemical substance (yeast gene YGR088W): 3.2
- The level of expressed mRNA in the presence of chemical substance/The level of expressed mRNA in the absence of chemical substance (yeast gene YHL028W): 0.4
- The level of expressed mRNA in the presence of chemical substance/The level of expressed mRNA in the absence of chemical substance (yeast gene YHL046C): 2.1
- The level of expressed mRNA in the presence of chemical substance/The level of expressed mRNA in the absence of chemical substance (yeast gene YHR030C): 2.5
- The level of expressed mRNA in the presence of chemical substance/The level of expressed mRNA in the absence of chemical substance (yeast gene YHR057C): 1.2
- The level of expressed mRNA in the presence of chemical substance/The level of expressed mRNA in the absence of chemical substance (yeast gene YHR104W): 2.3
- The level of expressed mRNA in the presence of chemical substance/The level of expressed mRNA in the absence of chemical substance (yeast gene YIL011W): 0.5
- The level of expressed mRNA in the presence of chemical substance/The level of expressed mRNA in the absence of chemical substance (yeast gene YIL033C): 1.3
- The level of expressed mRNA in the presence of chemical substance/The level of expressed mRNA in the absence of chemical substance (yeast gene YIR037W): 3.8
- The level of expressed mRNA in the presence of chemical substance/The level of expressed mRNA in the absence of chemical substance (yeast gene YIR038C): 4.5
- The level of expressed mRNA in the presence of chemical substance/The level of expressed mRNA in the absence of chemical substance (yeast gene YJL128C): 1.7
- The level of expressed mRNA in the presence of chemical substance/The level of expressed mRNA in the absence of chemical substance (yeast gene YJL158C): 0.5
- The level of expressed mRNA in the presence of chemical substance/The level of expressed mRNA in the absence of chemical substance (yeast gene YJL159W): 1.2
- The level of expressed mRNA in the presence of chemical substance/The level of expressed mRNA in the absence of chemical substance (yeast gene YJL165C): 1.0
- The level of expressed mRNA in the presence of chemical substance/The level of expressed mRNA in the absence of chemical substance (yeast gene YJR045C): 3.0
- The level of expressed mRNA in the presence of chemical substance/The level of expressed mRNA in the absence of chemical substance (yeast gene YJR090C): 1.2
- The level of expressed mRNA in the presence of chemical substance/The level of expressed mRNA in the absence of chemical substance (yeast gene YKL161C): 1.7
- The level of expressed mRNA in the presence of chemical substance/The level of expressed mRNA in the absence of chemical substance (yeast gene YKL163W): 1.6
- The level of expressed mRNA in the presence of chemical substance/The level of expressed mRNA in the absence of chemical substance (yeast gene YKL164C): 0.7
- The level of expressed mRNA in the presence of chemical substance/The level of expressed mRNA in the absence of chemical substance (yeast gene YKL210W): 2.9
- The level of expressed mRNA in the presence of chemical substance/The level of expressed mRNA in the absence of chemical substance (yeast gene YKR053C): 1.8
- The level of expressed mRNA in the presence of chemical substance/The level of expressed mRNA in the absence of chemical substance (yeast gene YLL024C): 2.4
- The level of expressed mRNA in the presence of chemical substance/The level of expressed mRNA in the absence of chemical substance (yeast gene YLL026W): 6.6
- The level of expressed mRNA in the presence of chemical substance/The level of expressed mRNA in the absence of chemical substance (yeast gene YLL039C): 1.5
- The level of expressed mRNA in the presence of chemical substance/The level of expressed mRNA in the absence of chemical substance (yeast gene YLL060C): 23.2
- The level of expressed mRNA in the presence of chemical substance/The level of expressed mRNA in the absence of chemical substance (yeast gene YLR006C): 1.1
- The level of expressed mRNA in the presence of chemical substance/The level of expressed mRNA in the absence of chemical substance (yeast gene YLR109W): 2.7
- The level of expressed mRNA in the presence of chemical substance/The level of expressed mRNA in the absence of chemical substance (yeast gene YLR259C): 2.6
- The level of expressed mRNA in the presence of chemical substance/The level of expressed mRNA in the absence of chemical substance (yeast gene YML007W): 2.5
- The level of expressed mRNA in the presence of chemical substance/The level of expressed mRNA in the absence of chemical substance (yeast gene YML070W): 3.9
- The level of expressed mRNA in the presence of chemical substance/The level of expressed mRNA in the absence of chemical substance (yeast gene YMR021C): 1.3
- The level of expressed mRNA in the presence of chemical substance/The level of expressed mRNA in the absence of chemical substance (yeast gene YMR173W): 8.2
- The level of expressed mRNA in the presence of chemical substance/The level of expressed mRNA in the absence of chemical substance (yeast gene YMR186W): 1.3
- The level of expressed mRNA in the presence of chemical substance/The level of expressed mRNA in the absence of chemical substance (yeast gene YNL064C): 1.8
- The level of expressed mRNA in the presence of chemical substance/The level of expressed mRNA in the absence of chemical substance (yeast gene YNL160W): 2.7
- The level of expressed mRNA in the presence of chemical substance/The level of expressed mRNA in the absence of chemical substance (yeast gene YNL241C): 7.4
- The level of expressed mRNA in the presence of chemical substance/The level of expressed mRNA in the absence of chemical substance (yeast gene YNR076W): 2.5
- The level of expressed mRNA in the presence of chemical substance/The level of expressed mRNA in the absence of chemical substance (yeast gene YOL064C): 2.7
- The level of expressed mRNA in the presence of chemical substance/The level of expressed mRNA in the absence of chemical substance (yeast gene YOL161C): 2.0
- The level of expressed mRNA in the presence of chemical substance/The level of expressed mRNA in the absence of chemical substance (yeast gene YOR008C): 1.0
- The level of expressed mRNA in the presence of chemical substance/The level of expressed mRNA in the absence of chemical substance (yeast gene YOR009W): 0.5
- The level of expressed mRNA in the presence of chemical substance/The level of expressed mRNA in the absence of chemical substance (yeast gene YOR010C): 0.7
- The level of expressed mRNA in the presence of chemical substance/The level of expressed mRNA in the absence of chemical substance (yeast gene YOR027W): 4.0
- The level of expressed mRNA in the presence of chemical substance/The level of expressed mRNA in the absence of chemical substance (yeast gene YOR208W): 2.0
- The level of expressed mRNA in the presence of chemical substance/The level of expressed mRNA in the absence of chemical substance (yeast gene YPL059W): 1.3
- The level of expressed mRNA in the presence of chemical substance/The level of expressed mRNA in the absence of chemical substance (yeast gene YPL106C): 1.8
- The level of expressed mRNA in the presence of chemical substance/The level of expressed mRNA in the absence of chemical substance (yeast gene YPL140C): 0.9
- The level of expressed mRNA in the presence of chemical substance/The level of expressed mRNA in the absence of chemical substance (yeast gene YPL194W): 3.1
- The level of expressed mRNA in the presence of chemical substance/The level of expressed mRNA in the absence of chemical substance (yeast gene YPL223C): 16.5
- The level of expressed mRNA in the presence of chemical substance/The level of expressed mRNA in the absence of chemical substance (yeast gene YPL240C): 2.6
- The level of expressed mRNA in the presence of chemical substance/The level of expressed mRNA in the absence of chemical substance (yeast gene YPR005C): 2.0
- The level of expressed mRNA in the presence of chemical substance/The level of expressed mRNA in the absence of chemical substance (yeast gene YPR026W): 3.1
